Assay results from patent US8466170B2, “7-azaindole derivatives” (Merck Patent GmbH, priority 2008, dated 2013).

How the values were obtained:
Type in all cases: biochemical
SGK1 = target: T1, SGK1 (Homo sapiens, UniProt O00141); experiment: SGK1 enzyme inhibition (filter binding method); conditions: Target SGK1
T1 sequence (O00141 1-431): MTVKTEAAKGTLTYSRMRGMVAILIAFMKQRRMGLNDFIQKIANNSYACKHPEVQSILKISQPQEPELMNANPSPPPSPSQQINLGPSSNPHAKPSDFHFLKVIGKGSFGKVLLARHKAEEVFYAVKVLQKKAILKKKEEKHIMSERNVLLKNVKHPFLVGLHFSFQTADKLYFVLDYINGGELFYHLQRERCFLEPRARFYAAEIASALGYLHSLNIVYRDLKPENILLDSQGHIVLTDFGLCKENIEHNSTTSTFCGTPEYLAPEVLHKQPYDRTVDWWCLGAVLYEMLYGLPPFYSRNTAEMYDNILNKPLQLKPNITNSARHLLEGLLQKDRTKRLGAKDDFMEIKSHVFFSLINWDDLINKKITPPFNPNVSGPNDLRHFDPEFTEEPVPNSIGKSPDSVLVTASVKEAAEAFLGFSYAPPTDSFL
Text: The inhibition of SGK1 protein kinase can be determined in the filter binding method.

Met kinase = target: T2, Met kinase (Homo sapiens, UniProt P08581); experiment: Met kinase flashplate method; conditions: Target Met kinase; read-out: Inhibition IC50 (enzyme)
T2 construct: 6His (N); purchased Upstate 14-526; host or cells: Sf21 insect cells (S. frugiperda), baculovirus
T2 sequence (P08581 974-1390 limits assumed): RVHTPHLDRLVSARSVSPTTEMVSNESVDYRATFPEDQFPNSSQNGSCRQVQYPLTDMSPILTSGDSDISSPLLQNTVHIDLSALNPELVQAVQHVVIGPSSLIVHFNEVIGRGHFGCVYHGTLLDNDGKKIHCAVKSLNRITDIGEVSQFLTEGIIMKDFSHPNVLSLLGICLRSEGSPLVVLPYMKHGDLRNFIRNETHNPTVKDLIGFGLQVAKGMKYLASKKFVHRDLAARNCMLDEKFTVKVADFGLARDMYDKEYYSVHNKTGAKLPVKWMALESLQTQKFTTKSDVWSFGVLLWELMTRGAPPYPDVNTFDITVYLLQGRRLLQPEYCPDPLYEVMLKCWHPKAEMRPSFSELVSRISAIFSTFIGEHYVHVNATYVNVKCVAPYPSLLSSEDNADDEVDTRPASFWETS
Text: According to the manufacturer's data (Met, active, Upstate, catalogue No. 14-526), Met kinase is expressed for the purposes of protein production in insect cells (Sf21; S. frugiperda) and subsequent affinity-chromatographic purification as “N-terminal 6His-tagged” recombinant human protein in a baculovirus expression vector.
The kinase activity can be measured using various available measurement systems. In the scintillation proximity method (Sorg et al., J. of Biomolecular Screening, 2002, 7, 11-19), the flashplate method or the filter binding test, the radioactive phosphorylation of a protein or peptide as substrate is measured using radioactively labelled ATP (^32P-ATP, ^33P-ATP). In the case of the presence of an inhibitory compound, a reduced radioactive signal, or none at all, can be detected. Furthermore, homogeneous time-resolved fluorescence resonance energy transfer (HTR-FRET) and fluoroescence polarisation (FP) technologies can be used as assay methods (Sills et al., J. of Biomolecular Screening, 2002, 191-214).
The test plates used are 96-well Flashplate^R microtitre plates from Perkin Elmer (Cat. No. SMP200). […] The measurement of the bound radioactivity is carried out by means of a scintillation measuring instrument (Topcount NXT, Perkin-Elmer).
The full value used is the inhibitor-free kinase reaction. […] The inhibitory values (IC50) are determined using the RS1_MTS program. […]

AMPK = AMPK enzyme inhibition; conditions: Target AMPK
SAPK3 = target: T3, SAPK3 (Homo sapiens, UniProt P53778); experiment: SAPK3 enzyme inhibition; conditions: Target SAPK3
T3 sequence (P53778 1-367): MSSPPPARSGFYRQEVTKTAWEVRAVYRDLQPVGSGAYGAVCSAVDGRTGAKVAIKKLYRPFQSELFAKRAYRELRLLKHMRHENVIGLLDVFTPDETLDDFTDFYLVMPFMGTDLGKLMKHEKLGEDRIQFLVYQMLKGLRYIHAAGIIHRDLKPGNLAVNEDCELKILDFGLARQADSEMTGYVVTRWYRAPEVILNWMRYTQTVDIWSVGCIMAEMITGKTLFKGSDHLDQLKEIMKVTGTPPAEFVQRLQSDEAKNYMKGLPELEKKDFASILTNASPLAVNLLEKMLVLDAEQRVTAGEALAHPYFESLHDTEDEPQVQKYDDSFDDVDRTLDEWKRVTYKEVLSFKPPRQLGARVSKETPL

MKK1 = MKK1 (Homo sapiens, UniProt Q02750); experiment: MKK1 enzyme inhibition; conditions: Target MKK1
Sequence of MKK1 (Q02750 whole entry, species assumed): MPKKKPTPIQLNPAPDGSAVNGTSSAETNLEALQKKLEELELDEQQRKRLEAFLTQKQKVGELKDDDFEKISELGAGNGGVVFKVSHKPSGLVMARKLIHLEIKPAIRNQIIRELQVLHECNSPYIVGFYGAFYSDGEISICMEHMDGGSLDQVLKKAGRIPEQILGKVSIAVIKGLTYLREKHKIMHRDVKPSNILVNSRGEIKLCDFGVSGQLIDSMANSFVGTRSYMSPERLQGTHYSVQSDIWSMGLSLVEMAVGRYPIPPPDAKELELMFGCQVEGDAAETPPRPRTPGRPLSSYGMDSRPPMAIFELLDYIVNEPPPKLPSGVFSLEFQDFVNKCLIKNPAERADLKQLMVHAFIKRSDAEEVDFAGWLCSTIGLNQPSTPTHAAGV

CHK2 = CHK2 (Homo sapiens, UniProt O96017); experiment: CHK2 enzyme inhibition; conditions: Target CHK2
Sequence of CHK2 (O96017 whole entry, species assumed): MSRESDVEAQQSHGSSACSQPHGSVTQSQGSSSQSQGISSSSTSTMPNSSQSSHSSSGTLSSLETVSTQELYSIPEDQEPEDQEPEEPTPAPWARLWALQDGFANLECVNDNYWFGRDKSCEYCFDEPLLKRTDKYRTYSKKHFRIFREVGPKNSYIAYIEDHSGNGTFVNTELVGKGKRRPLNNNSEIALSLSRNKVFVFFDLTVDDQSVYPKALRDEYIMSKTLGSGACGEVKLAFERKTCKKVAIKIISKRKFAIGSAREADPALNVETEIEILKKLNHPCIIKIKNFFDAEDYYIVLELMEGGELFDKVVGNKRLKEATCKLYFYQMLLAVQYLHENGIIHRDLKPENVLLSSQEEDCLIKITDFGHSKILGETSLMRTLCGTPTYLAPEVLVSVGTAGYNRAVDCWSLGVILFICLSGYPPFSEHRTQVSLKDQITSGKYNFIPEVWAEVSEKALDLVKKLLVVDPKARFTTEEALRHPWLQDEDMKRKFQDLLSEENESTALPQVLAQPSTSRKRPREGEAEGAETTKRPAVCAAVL

GSK3-beta = GSK3-beta (Homo sapiens, UniProt P49841); experiment: Measurement of the GSK3-beta activity; conditions: Target GSK3-beta; read-out: Inhibition IC50 (enzyme)
Sequence of GSK3-beta (P49841 whole entry, species assumed): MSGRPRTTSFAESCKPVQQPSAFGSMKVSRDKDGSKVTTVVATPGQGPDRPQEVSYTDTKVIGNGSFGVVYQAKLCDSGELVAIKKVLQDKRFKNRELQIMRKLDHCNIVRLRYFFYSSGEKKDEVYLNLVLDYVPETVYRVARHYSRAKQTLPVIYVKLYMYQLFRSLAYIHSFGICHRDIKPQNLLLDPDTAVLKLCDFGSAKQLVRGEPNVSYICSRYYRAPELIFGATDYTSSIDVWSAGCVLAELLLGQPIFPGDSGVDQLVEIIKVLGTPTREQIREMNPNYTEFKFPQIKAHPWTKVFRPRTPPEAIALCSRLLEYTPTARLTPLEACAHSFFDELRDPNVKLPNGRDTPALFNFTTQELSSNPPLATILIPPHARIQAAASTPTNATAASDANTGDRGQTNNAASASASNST
Procedure: The GSK3-beta activity can be measured analogously to WO 2008/078196. GSK3b (5-20 mU diluted in 20 mM MOPS ph 7.5, 1 mM EDTA, […], 0.01% Brj35, 5% glycerol, 0.1% beta-mercaptoethanol, 1 mg/ml of BSA) is measured against phospho-GS2 peptide ([…](PO4)EDEEE) in a final volume of 25.5 μl containing 8 mM MOPS ph 7.0, 0.2 mM EDTA, 20 μM phospho GS2 peptide, 10 mM magnesium acetate and 0.005 mM [33P-g-ATP] (50-1000 cpm/pmol) and is incubated at room temperature for 30 minutes. The assay is stopped by addition of 5 μl of 0.5 M (3%) orthophosphoric acid and is then harvested on P81 unifilter plates with a wash buffer (50 mM orthophosphoric acid).

Row | IC50 (SGK1) [nM] | Compound | also measured
1 | 100 to 10000 | c1ccc(Nc2nnc(-c3c[nH]c4ncccc34)o2)cc1 [Compound A2, phenyl-[5-(1H-pyrrolo[2,3-b]pyridin-3-yl)-1,3,4-oxadiazol-2-yl]amine] | 
2 | 1 to 100 | COc1cccc(CNc2nnc(-c3c[nH]c4ncc(Br)cc34)o2)c1 [Compound A4] | IC50 (Met kinase): 100 to 10000 nM
3 | 1 to 100 | Fc1cccc(CNc2nnc(-c3c[nH]c4ncccc34)o2)c1 [Compound A5] | IC50 (Met kinase): 100 to 10000 nM
4 | 100 to 10000 | COc1cccc(CNc2nnc(-c3c[nH]c4ncccc34)n2N)c1 [Compound A10, N*3*-(3-methoxybenzyl)-5-(1H-pyrrolo[2,3-b]pyridin-3-yl)-1,2,4-triazole-3,4-diamine] | 
5 | 100 to 10000 | COc1cccc(CNc2nnc(-c3c[nH]c4ncc(-c5cn[nH]c5)cc34)o2)c1 [Compound A6] | 
6 | 1 to 100 | COc1cccc(CNc2nnc(-c3c[nH]c4ncccc34)o2)c1 [Compound A1, (3-methoxybenzyl)-[5-(1H-pyrrolo[2,3-b]pyridin-3-yl)-1,3,4-oxadiazol-2-yl]amine] | IC50 (AMPK): 1 to 100 nM; IC50 (SAPK3): 100 to 10000 nM; IC50 (MKK1): 1 to 100 nM; IC50 (CHK2): 1 to 100 nM; IC50 (GSK3-beta): 1 to 100 nM
7 | 100 to 10000 | COc1cccc(CNc2nnc(-c3c[nH]c4ncccc34)n2Cc2ccccc2)c1 [Compound A9, [4-benzyl-5-(1H-pyrrolo[2,3-b]pyridin-3-yl)-4H-1,2,4-triazol-3-yl]-(3-methoxybenzyl)amine] | 
8 | 100 to 10000 | Nc1nnc(-c2c[nH]c3ncccc23)o1 [Compound A3, 5-(1H-pyrrolo[2,3-b]pyridin-3-yl)-1,3,4-oxadiazol-2-ylamine] | 
